According to patent US20250170117A1, “MODULATORS OF ACKR3 AND USES THEREOF” (InterAx Biotech AG, priority 2022, published 2025):

Biological target: T1, NanoLuc-hACKR3 (Homo sapiens, UniProt P25106)
T1 construct: expressed in transfected cells; host or cells: HEK293T (transient, PEI; membrane preparation)
Experiment: NanoBRET binding study (displacement of fluorescently labelled CXCL12)
Conditions: displacement of 0.3 nM CXCL12-AF647; membranes of HEK293T cells expressing NanoLuc-ACKR3; 1 hour incubation; read-out: Affinity
Protocol: Membranes of HEK293T cells that transiently express the NanoLuc-hACKR3 were produced. 2 million HEK293T cells were seeded per […] dish and were transfected the next day using a DNA/PEI-mix containing 0.25 μg plasmid DNA encoding for the ACKR3, 4.75 μg pcDEF3 plasmid DNA and 30 μg linear PEI. Two days after transfection, cells were collected in PBS and pelleted by centrifugation. Cell pellets were resuspended in ice-cold membrane buffer (15 mM Tris, 0.3 mM EDTA, 2 mM MgCl2, pH 7.4 at 4° C.) and were dounce-homogenized on ice by plunging the pestle […] with 1500 rpm. Cell homogenates were subsequently subjected to two freeze-thaw cycles using liquid nitrogen. Next, the cell homogenates were centrifuged at 40,000 g and pellets were resuspended in Tris-sucrose buffer (20 mM Tris, 250 mM Sucrose, pH 7.4 at 4° C.). Finally, the membrane samples were homogenized using a 23-gauge needle, snap-frozen with liquid nitrogen and stored until further experimentation at −80° C.
Binding reactions were measured in triplicate on white low-volume 384-well plates and started by combining 0.3 nM fluorescently labelled CXCL12 (CXCL12 labelled with a AF647® dye in a molar ratio of dye:peptide of 1:1, purchased from ALMAC, h-SDF-1α (AF647®), cat. No. CAF-11, Sequence:
[…](Ale xa647®)ALN), increasing concentrations of test compound (10^−5 M-10^−11 M) with 35 ng membranes (protein content) per well of HEK293T cells expressing the NanoLuc-ACKR3. All dilutions were prepared in HBSS supplemented with 0.2% BSA. After assembling the binding reaction, the plate was flash-centrifuged at 500 g. Binding reactions were then incubated for 1 hour after which NanoGlo substrate was added (310 times diluted from stock concentration) to a final volume of 13.5 μL. The reaction plate was again pulse-centrifuged to 500 g and the total light intensity was measured for 460 nm wavelength with 80 nm bandwidth and separately for wavelengths ≥610 nm using the PHERAstar-FSX (BMG Labtech, Ortenberg, Germany) with a dual emission filter. The ratio of light intensities (>610 nm over 460 nm) is a measure for the relative binding of CXCL12-A647 to the NanoLuc-ACKR3. The pharmacological data are presented in Appendix 1.

T1 sequence (P25106 whole entry): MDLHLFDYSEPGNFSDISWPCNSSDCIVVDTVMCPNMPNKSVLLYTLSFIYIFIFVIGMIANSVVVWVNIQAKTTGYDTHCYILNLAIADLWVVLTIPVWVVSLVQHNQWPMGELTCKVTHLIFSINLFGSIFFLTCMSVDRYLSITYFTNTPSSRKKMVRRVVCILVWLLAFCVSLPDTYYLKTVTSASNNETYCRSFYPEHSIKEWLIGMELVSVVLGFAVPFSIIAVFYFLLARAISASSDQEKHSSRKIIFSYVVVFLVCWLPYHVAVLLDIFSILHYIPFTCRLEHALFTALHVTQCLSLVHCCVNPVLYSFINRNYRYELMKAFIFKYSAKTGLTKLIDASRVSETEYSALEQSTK

Compound	Ki [µM]
O=C(O)c1ccc(CN2CCC(CNC(=O)c3cc(-c4ccc(F)cc4F)on3)CC2)cc1 [Molecule 40]	1 to 10
O=C(NCC1CCN(Cc2ccc([N+](=O)[O-])cc2)CC1)c1cc(-c2ccc(F)cc2F)on1 [Molecule 43]	> 10
COC(=O)c1ccc(CN2CCC(CNC(=O)c3cc(-c4ccc(F)cc4F)on3)CC2)cc1 [Molecule 36]	≤ 0.1
COc1cccc(CN2CCC(CNC(=O)c3cc(-c4ccc(F)cc4F)on3)CC2)c1 [Molecule 26]	≤ 0.1
O=C(NCC1CCN(CC2CCCCC2)CC1)c1cc(-c2ccc(F)cc2F)on1 [Molecule 22]	1 to 10
CN(C)c1ccc(CN2CCC(CNC(=O)c3cc(-c4ccc(F)cc4F)on3)CC2)cc1 [Molecule 37]	≤ 0.1
N#Cc1ccc(CN2CCC(CNC(=O)c3cc(-c4ccc(F)cc4F)on3)CC2)cc1 [Molecule 35]	> 10
O=C(NCC1CCN(C(=O)c2cnc3ccccc3n2)CC1)c1cc(-c2ccc(F)cc2F)on1 [Molecule 12]	1 to 10
O=C(NCC1CCN(C2CCCC2)CC1)c1cc(-c2ccc(F)cc2F)on1 [Molecule 19]	0.1 to 1
CN(C)C(=O)c1ccc(CN2CCC(CNC(=O)c3cc(-c4ccc(F)cc4F)on3)CC2)cc1 [Molecule 41]	1 to 10
O=C(NCC1CCN(C2CCC2)CC1)c1cc(-c2ccc(F)cc2F)on1 [Molecule 18]	0.1 to 1
NS(=O)(=O)c1ccc(CN2CCC(CNC(=O)c3cc(-c4ccc(F)cc4F)on3)CC2)cc1 [Molecule 49]	0.1 to 1
O=C(NCC1CCN(Cc2ccc(OC(F)(F)F)cc2)CC1)c1cc(-c2ccc(F)cc2F)on1 [Molecule 38]	> 10
O=C(NCC1CCN(Cc2ccc(C(F)(F)F)cc2)CC1)c1cc(-c2ccc(F)cc2F)on1 [Molecule 51]	> 10
O=C(NCC1CCN(CC2CCCC2)CC1)c1cc(-c2ccc(F)cc2F)on1 [Molecule 16]	0.1 to 1
O=C(NCC1CCN(S(=O)(=O)C2CC2)CC1)c1cc(-c2ccc(F)cc2F)on1 [Molecule 14]	> 10
O=C(NCC1CCN(C(=O)C2CCCCC2)CC1)c1cc(-c2ccc(F)cc2F)on1 [Molecule 9]	> 10
O=C(NCC1CCN(C(=O)C2CCC2)CC1)c1cc(-c2ccc(F)cc2F)on1 [Molecule 8]	> 10
CN(C)C(=O)c1cccc(CN2CCC(CNC(=O)c3cc(-c4ccc(F)cc4F)on3)CC2)c1 [Molecule 31]	1 to 10
CC(=O)Nc1ccc(CN2CCC(CNC(=O)c3cc(-c4ccc(F)cc4F)on3)CC2)cc1 [Molecule 39]	≤ 0.1
O=C(NCC1CCN(C2CCCCC2)CC1)c1cc(-c2ccccc2)on1 [Molecule 2]	> 10
O=C(NCC1CCN(C(=O)C2CC2)CC1)c1cc(-c2ccc(F)cc2F)on1 [Molecule 7]	> 10
O=C(NCC1CCN(C2CCCCCC2)CC1)c1cc(-c2ccc(F)cc2F)on1 [Molecule 20]	0.1 to 1
CS(=O)(=O)c1ccc(CN2CCC(CNC(=O)c3cc(-c4ccc(F)cc4F)on3)CC2)cc1 [Molecule 48]	1 to 10
COc1cc(CN2CCC(CNC(=O)c3cc(-c4ccc(F)cc4F)on3)CC2)cc(OC)c1OC [Molecule 47]	0.1 to 1
COc1ccc(CN2CCC(CNC(=O)c3cc(-c4ccc(F)cc4F)on3)CC2)cc1 [Molecule 27]	≤ 0.1
COc1ccc(CN2CCC(CNC(=O)c3cc(-c4ccc(F)cc4F)on3)CC2)cc1OC [Molecule 46]	≤ 0.1

The next lines start with the values.

Ki [µM]	Compound
≤ 0.1	O=C(NCC1CCN(CCCCc2ccccc2)CC1)c1cc(-c2ccc(F)cc2F)on1 [Molecule 45]
≤ 0.1	O=C(NCC1CCN(C/C=C/c2ccccc2)CC1)c1nnc(-c2ccc(F)cc2F)s1 [Molecule 89]
0.1 to 1	O=C(NCC1CCN(C/C=C/c2ccccc2)CC1)c1nc(-c2ccc(F)cc2F)no1 [Molecule 99]
0.1 to 1	O=C(NCC1CCN(C/C=C/c2ccccc2)CC1)c1cnn(-c2ccc(F)cc2F)c1 [Molecule 64]
≤ 0.1	O=C(NCC1CCN(C/C=C/c2ccccc2)CC1)c1cnc(-c2ccc(F)cc2F)s1 [Molecule 87]
≤ 0.1	O=C(NCC1CCN(C/C=C/c2ccccc2)CC1)c1nnc(-c2ccc(F)cc2F)o1 [Molecule 96]
0.1 to 1	O=C(NCC1CCN(C/C=C/c2ccccc2)CC1)c1nnn(-c2ccc(F)cc2F)n1 [Molecule 72]
≤ 0.1	O=C(NCC1CCN(Cc2ccc(Cl)cc2)CC1)c1cc(-c2ccc(F)cc2F)on1 [Molecule 34]
0.1 to 1	O=C(NCC1CCN(Cc2ccc(Br)cc2)CC1)c1cc(-c2ccc(F)cc2F)on1 [Molecule 53]
1 to 10	O=C(NCC1CCN(C/C=C/c2ccccc2)CC1)c1cc(-c2ccc(F)cc2F)n[nH]1 [Molecule 58]
1 to 10	O=C(NCC1CCN(C/C=C/c2ccccc2)CC1)c1nc(-c2ccc(F)cc2F)cs1 [Molecule 80]
1 to 10	O=C(NCC1CCN(Cc2ccncc2)CC1)c1cc(-c2ccc(F)cc2F)on1 [Molecule 30]
0.1 to 1	O=C(NCC1CCN(C/C=C/c2ccccc2)CC1)c1ncc(-c2ccc(F)cc2F)o1 [Molecule 94]
≤ 0.1	O=C(NCC1CCN(C/C=C/c2ccccc2)CC1)c1cc(-c2ccc(F)cc2F)on1 [Molecule 42]
≤ 0.1	O=C(NCC1CCN(C/C=C/c2ccccc2)CC1)c1cc(-c2ccc(F)cc2F)no1 [Molecule 92]
≤ 0.1	COc1ccccc1CN1CCC(CNC(=O)c2cc(-c3ccc(F)cc3F)on2)CC1 [Molecule 25]
≤ 0.1	O=C(NCC1CCN(C/C=C/c2ccccc2)CC1)c1cn(-c2ccc(F)cc2F)nn1 [Molecule 61]
≤ 0.1	O=C(NCC1CCN(C/C=C/c2ccccc2)CC1)c1ncc(-c2ccc(F)cc2F)s1 [Molecule 85]
≤ 0.1	O=C(NCC1CCN(CCCc2ccccc2)CC1)c1cc(-c2ccc(F)cc2F)on1 [Molecule 24]
≤ 0.1	O=C(NCC1CCN(Cc2ccc(O)cc2)CC1)c1cc(-c2ccc(F)cc2F)on1 [Molecule 50]
> 10	O=C(NCC1CCN(c2ccccc2)CC1)c1cc(-c2ccc(F)cc2F)on1 [Molecule 32]
1 to 10	O=C(NCC1CCN(C/C=C/c2ccccc2)CC1)c1csc(-c2ccc(F)cc2F)n1 [Molecule 82]
0.1 to 1	O=C(NCC1CCN(Cc2ccc(F)cc2)CC1)c1cc(-c2ccc(F)cc2F)on1 [Molecule 52]
0.1 to 1	O=C(NCC1CCN(Cc2ccccn2)CC1)c1cc(-c2ccc(F)cc2F)on1 [Molecule 28]
0.1 to 1	O=C(NCC1CCN(Cc2ccccc2)CC1)c1cc(-c2ccc(F)cc2F)on1 [Molecule 17]
≤ 0.1	Cc1ccc(CN2CCC(CNC(=O)c3cc(-c4ccc(F)cc4F)on3)CC2)cc1 [Molecule 33]
1 to 10	O=C(NCC1CCN(C/C=C/c2ccccc2)CC1)c1cnn(-c2ccc(F)cc2F)n1 [Molecule 68]
0.1 to 1	O=C(NCC1CCN(CCc2ccccc2)CC1)c1cc(-c2ccc(F)cc2F)on1 [Molecule 23]
1 to 10	O=C(NCC1CCN(C/C=C/c2ccccc2)CC1)c1nc(-c2ccc(F)cc2F)c[nH]1 [Molecule 77]
0.1 to 1	O=C(NCC1CCN(Cc2cccnc2)CC1)c1cc(-c2ccc(F)cc2F)on1 [Molecule 29]
